From ChEMBL document CHEMBL3352025, “Evaluation of the neuroprotective activity of stansin 6, a resin glycoside from Ipomoea stans” (Bioorg Med Chem Lett, 2014) come the findings set out here.

Molecules are shown by their SMILES. Activity calls are given as the source filed them. The calls are words filed in the database; no cut-off is given here.

In data set [1] the test system is Rattus norvegicus. As to the kind of experiment: Toxicity in rat assessed as convulsions at 10 to 80 mg/kg, ip. The data set is classed as organism-based. More on the design: dose 10-80 mg/kg, route intraperitoneal. The note with it: in vivo.
The subject of data set [2] is Rattus norvegicus. In words: Toxicity in rat assessed as seizures at 10 to 80 mg/kg, ip. The format is organism-based. More on the design: dose 10-80 mg/kg, route intraperitoneal. As to conditions: in vivo.
Data set [3] relates to Rattus norvegicus. As to the kind of experiment: Toxicity in rat assessed as hippocampal damage at 10 to 80 mg/kg, ip. The format is organism-based, Hippocampus. More on the design: dose 10-80 mg/kg, route intraperitoneal. The note with it: in vivo.
The subject of data set [4] is Rattus norvegicus. As to the kind of experiment: Anticonvulsant activity in rat assessed as protection against kainic acid-induced convulsions at 10 mg/kg, ip. More on the design: dose 10 mg/kg. The data set is classed as functional, organism-based.
Data set [5] has as its system Rattus norvegicus. As to the kind of experiment: Anticonvulsant activity in rat assessed as protection against kainic acid-induced seizures in denate gyrus at 10 mg/kg, ip. More on the design: dose 10 mg/kg. The format is functional, organism-based.
In data set [6] the test system is Rattus norvegicus. In words: Reduction in degeneration pattern in kainic acid-induced rat brain inCA3 region at 10 mg/kg, ip by GFAP staining. The format is functional, organism-based. More on the design: dose 10 mg/kg.
For data set [7], the system named is Rattus norvegicus. In words: Decrease in astrocyte reactivity in kainic acid-induced rat brain inCA3 region at 10 mg/kg, ip by GFAP staining. The data set is classed as functional, organism-based. More on the design: dose 10 mg/kg.
For data set [8], the system named is Rattus norvegicus. In words: Reduction in IL-1beta in kainic acid-induced rat brain at 10 mg/kg, ip. The data set is classed as functional, organism-based. More on the design: dose 10 mg/kg.
Data set [9] deals with Rattus norvegicus. As to the kind of experiment: Reduction in TNFalpha in kainic acid-induced rat brain at 10 mg/kg, ip. The format is functional, organism-based. More on the design: dose 10 mg/kg.
Data set [10] deals with Rattus norvegicus. In words: Neuroprotective activity in kainic acid-induced rat assessed as decrease in hippocampal neuronal loss at 10 mg/kg, ip. The data set is classed as functional, organism-based. More on the design: dose 10 mg/kg.
Data set [11] concerns Rattus norvegicus. In words: Anticonvulsant activity in rat assessed as protection against kainic acid-induced death at 10 mg/kg, ip. The format is functional, organism-based. More on the design: dose 10 mg/kg.

For the molecule `CCCCC[C@H]1CCCCCCCCCC(=O)O[C@@H]2[C@@H](O[C@@H]3O[C@H](C)[C@@H](OC(=O)[C@@H](C)CC)[C@H](O)[C@H]3O)[C@H](C)O[C@@H](O[C@H]3[C@H](O[C@H]4[C@H](O1)O[C@H](C)[C@@H](O)[C@@H]4O)O[C@H](COC(=O)[C@H](C)[C@@H](C)O)[C@@H](O)[C@@H]3O)[C@@H]2OC(=O)[C@@H](C)CC` [ORIZABIN XX], the Activity result in the data set with Rattus norvegicus [1], in the data set with Rattus norvegicus [2] and in the data set on Rattus norvegicus [3] was “Non-toxic” each time. In addition, in the data set with Rattus norvegicus [4], the inhibition result is “Active”. Besides, the outcome with Rattus norvegicus [5], in the data set with Rattus norvegicus [6], in the data set on Rattus norvegicus [7], in the data set with Rattus norvegicus [8], with Rattus norvegicus [9] and with Rattus norvegicus [10] was Active. In addition, in the data set with Rattus norvegicus [11], the outcome was Active.
